Measured values from the supplement of paper PMC10307832.

Tests used:
Assay in all cases: relative viability (nuclei count vs DMSO), 5 days (fraction); higher = more cells survive
Bortezomib + Dasatinib = compound: CC(C)C[C@H](NC(=O)[C@H](Cc1ccccc1)NC(=O)c1cnccn1)B(O)O [Bortezomib] + Cc1nc(Nc2ncc(C(=O)Nc3c(C)cccc3Cl)s2)cc(N2CCN(CCO)CC2)n1 [Dasatinib] (partner 0.075 µM)
Method in brief: (§1)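 After 5 days of treatment, lung cancer cells in 1536-well plates were fixed and stained in a single step (final 0.05% Triton X-100, 1% formaldehyde, 1 ug/ml Hoechst) and their nuclei counted on 4× images. Treatment had been applied by pin tool the day after seeding as one drug alone or as a fixed anchor-drug dose with five library-drug doses (not always all listed) in √10 steps. Relative viability is the nuclei count of treated wells divided by that of vehicle wells, and values are medians of duplicate plates.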

Obatoclax + Lapatinib = compound: COC1=CC(c2cc3ccccc3[nH]2)=N/C1=C\c1[nH]c(C)cc1C [Obatoclax] + CS(=O)(=O)CCNCc1ccc(-c2ccc3ncnc(Nc4ccc(OCc5cccc(F)c5)c(Cl)c4)c3c2)o1 [Lapatinib] (partner 2 µM)
Method in brief: as §1

Bortezomib + Lapatinib = compound: CC(C)C[C@H](NC(=O)[C@H](Cc1ccccc1)NC(=O)c1cnccn1)B(O)O [Bortezomib] + CS(=O)(=O)CCNCc1ccc(-c2ccc3ncnc(Nc4ccc(OCc5cccc(F)c5)c(Cl)c4)c3c2)o1 [Lapatinib] (partner 2 µM)
Method in brief: as §1

[1] = compound: CC1=CC(=NN1)NC2=CC(=NC(=N2)/C=C/C3=CC=CC=C3)N4CCN(CC4)C + O=C(CCCCCCC(=O)Nc1ccccc1)NO [Vorinostat] (partner 1 µM)
Method in brief: as §1

Row | Cell Line | relative viability (Bortezomib + Dasatinib; first compound 0.0002 µM) | relative viability (Bortezomib + Dasatinib; first compound 0.000632 µM) | relative viability (Bortezomib + Dasatinib; first compound 0.002 µM) | relative viability (Bortezomib + Dasatinib; first compound 0.006325 µM) | relative viability (Bortezomib + Dasatinib; first compound 0.02 µM) | relative viability (Obatoclax + Lapatinib; first compound 0.01 µM) | relative viability (Obatoclax + Lapatinib; first compound 0.03162 µM) | relative viability (Obatoclax + Lapatinib; first compound 0.1 µM) | relative viability (Obatoclax + Lapatinib; first compound 0.3162 µM) | relative viability (Obatoclax + Lapatinib; first compound 1 µM) | relative viability (Bortezomib + Lapatinib; first compound 0.0002 µM) | relative viability (Bortezomib + Lapatinib; first compound 0.000632 µM) | relative viability (Bortezomib + Lapatinib; first compound 0.002 µM) | relative viability (Bortezomib + Lapatinib; first compound 0.006325 µM) | relative viability (Bortezomib + Lapatinib; first compound 0.02 µM) | relative viability ([1]; first compound 0.08 µM) | relative viability ([1]; first compound 0.253 µM) | relative viability ([1]; first compound 0.8 µM) | relative viability ([1]; first compound 2.53 µM) | relative viability ([1]; first compound 8 µM)
1 | NCI-H838 | 0.271 | 0.261 | 0.32 | 0.209 | 0.16 | 1.07 | 1.17 | 0.465 | 0.62 | 0.377 | 0.897 | 0.982 | 0.936 | 0.121 | 0.114 | 0.726 | 0.729 | 0.394 | 0.146 | 0.117
2 | H3255 | 0.332 | 0.271 | 0.299 | 0.37 | 0.28 | 0.51 | 0.244 | 0.327 | 0.256 | 0.315 | 0.261 | 0.209 | 0.24 | 0.191 | 0.179 | 0.746 | 0.834 | 0.872 | 0.831 | 0.525
3 | EPLC-272H | 0.342 | 0.192 | 0.277 | 0.0803 | 0.0618 | 0.942 | 0.909 | 0.458 | 0.913 | 0.883 |  |  | 1.03 | 0.671 | 0.167 | 0.472 | 0.488 | 0.401 | 0.141 | 0.0816
4 | NCI-H647 | 0.203 | 0.156 | 0.188 | 0.0197 | 0.017 | 1.02 | 0.982 | 0.48 | 0.189 | 0.144 | 1.05 | 1.05 | 0.711 | 0.0371 | 0.0208 | 0.58 | 0.626 | 0.391 | 0.128 | 0.0534
5 | LXF-289 | 0.374 | 0.151 | 0.227 | 0.0474 | 0.0368 | 0.893 | 0.903 | 0.934 | 0.832 | 0.624 | 0.908 | 0.871 | 0.949 | 0.115 | 0.104 | 0.742 | 0.759 | 0.603 | 0.252 | 0.113
6 | NCI-H1650 | 0.354 | 0.302 | 0.181 | 0.197 | 0.207 | 0.849 | 0.657 | 0.698 | 0.418 | 0.302 | 0.279 | 0.482 | 0.154 | 0.17 | 0.181 | 0.523 | 0.733 | 0.553 | 0.14 | 0.0794
7 | NCI-H1755 | 0.449 | 0.326 | 0.418 | 0.176 | 0.196 | 1.04 | 1.03 | 0.81 | 1.07 | 0.995 | 0.991 | 0.853 | 1.04 | 0.48 | 0.155 | 0.682 | 0.773 | 0.651 | 0.359 | 0.209
8 | HCC-15 | 0.514 | 0.629 | 0.649 | 0.0786 | 0.0817 | 0.854 | 0.801 | 0.747 | 0.723 | 0.581 | 0.824 | 0.943 | 0.817 | 0.38 | 0.0867 | 0.861 | 0.875 | 0.887 | 0.526 | 0.114
9 | EMC-BAC-2 | 0.313 | 0.318 | 0.494 | 0.157 | 0.188 | 0.878 | 0.908 | 0.886 | 0.74 | 0.897 | 0.902 | 0.923 | 0.966 | 0.652 | 0.153 | 0.416 | 0.428 | 0.354 | 0.171 | 0.0976
10 | NCI-H1734 | 0.469 | 0.45 | 0.516 | 0.112 | 0.109 | 1.04 | 0.994 |  | 0.661 | 0.706 | 0.977 | 0.99 | 1.32 | 0.21 | 0.112 | 0.745 | 0.757 | 0.694 | 0.22 | 0.187
11 | NCI-H1395 | 0.428 | 0.41 | 0.427 | 0.352 | 0.306 | 1 | 0.943 | 0.79 | 1.09 | 0.592 | 0.998 | 0.79 | 0.449 | 0.499 | 0.28 | 0.702 | 0.669 | 0.675 | 0.375 | 0.236
12 | HOP-62 | 0.581 | 0.645 | 0.713 | 0.228 | 0.068 | 0.963 | 0.909 | 0.976 | 1.04 | 1.05 | 0.953 | 1.01 | 1.04 | 0.283 | 0.0578 | 0.603 | 0.566 | 0.637 | 0.387 | 0.129
13 | LK-2 | 0.287 | 0.304 | 0.203 | 0.114 | 0.138 | 0.994 | 0.838 | 0.915 | 0.886 | 0.805 | 0.804 | 0.922 | 0.498 | 0.204 | 0.232 | 0.254 | 0.155 | 0.283 | 0.223 | 0.126
14 | SW 1573 | 0.488 | 0.867 | 0.24 | 0.0568 | 0.052 | 1.06 | 1.16 | 1.31 | 1.13 | 0.559 | 1.03 | 1.09 | 1.14 | 0.308 | 0.0835 | 0.703 | 0.751 | 0.572 | 0.156 | 0.102
15 | SK-LU-1 | 0.17 | 0.202 | 0.214 | 0.0951 | 0.118 | 0.75 | 0.87 | 0.61 | 0.637 | 0.621 | 0.781 | 0.894 | 0.497 | 0.13 | 0.146 | 0.721 | 0.805 | 0.672 | 0.323 | 0.107
16 | NCI-H23 | 0.913 | 0.976 | 0.76 | 0.224 | 0.108 | 1.13 | 1.23 | 0.805 | 0.619 | 0.458 |  | 0.866 | 1.06 | 0.156 | 0.135 | 0.485 | 0.756 | 0.457 | 0.141 | 0.0948
